Data as given in patent publication US20190247350A1, “COMPOSITION FOR IMPROVING DECREASED ABSORPTION IN DIGESTIVE TRACT, AND COMPOSITION FOR PROMOTING ABSORPTION IN DIGESTIVE TRACT” (AJINOMOTO CO., INC., priority 2016, published 2019).

Experiments:
Format in all cases: in vivo, mouse
[1] = tested on: peptide transporter gene (Slc15a1); assay: Expression of peptide transporter gene in small intestine after running exercise (GeneChip array); conditions: feed with 2 wt % for 7 days, 4 hr running, small intestine 1 hr after running; compared to Ex group; P<0.01
Excerpt: (§1) 7-Week-old male CD2F1 mice (CHARLES RIVER LABORATORIES JAPAN, INC.) were divided into 4 groups (“Sed”, “Ex”, “Ex+Gln” and “Ex+Cys2”) (n=6/group), Sed group and Ex group were made to ingest a standard purified feed (AIN-93G composition), Ex+Gln group was made to ingest a standard purified feed (AIN-93G composition) added with glutamine (2 wt %) by replacing casein, and Ex+Cys2 group was made to ingest a standard purified feed (AIN-93G composition) added with cystine (2 wt %) by replacing casein, each for 7 days. Thereafter, each group was fasted overnight, and Ex group, Ex+Gln group and Ex+Cys2 group were made to run in a running wheel for 4 hr (speed=10.5 m/min). Sed group was continuously fasted during the running exercise of Ex group, Ex+Gln group and Ex+Cys2 group. At 1 hr after completion of running, the small intestine was collected from the mice of each group, and total RNA was extracted using Rneasy Lipid Tissue Mini Kit (QIAGEN). GeneChip Mouse Genome 430 2.0 (3′IVT) array (Affymetrix) was used for the measurement of comprehensive gene expression. Difference in the gene expression level of each group was tested by Dunnett's test following one-way analysis of variance. […]

[2] = tested on: ABC protein G5 gene (Abcg5); assay: Expression of ABC protein G5 gene in small intestine after running exercise (GeneChip array); conditions: feed with 2 wt % for 7 days, 4 hr running, small intestine 1 hr after running; compared to Ex group; P<0.05
Excerpt: as §1

biotinidase gene (Btd) = assay: Expression of biotinidase gene in small intestine after running exercise (GeneChip array); conditions: feed with 2 wt % for 7 days, 4 hr running, small intestine 1 hr after running; compared to Ex group; P<0.01
Excerpt: as §1

[3] = tested on: sodium-dependent multivitamin transporter gene (Slc5a6); assay: Expression of sodium-dependent multivitamin transporter gene in small intestine after running exercise (GeneChip array); conditions: feed with 2 wt % for 7 days, 4 hr running, small intestine 1 hr after running; compared to Ex group; P<0.05
Excerpt: as §1

aquaporin gene (Aqa3) = assay: Expression of aquaporin gene in small intestine after running exercise (GeneChip array); conditions: feed with 2 wt % for 7 days, 4 hr running, small intestine 1 hr after running; compared to Ex group; P<0.01
Excerpt: as §1

[4] = tested on: small intestine (everted intestine sample); assay: Glucose absorption capacity of everted intestine sample after running exercise (Experimental Example 2); conditions: feed with cystine 2 wt % for 7 days, 4 hr running
Excerpt: 7-Week-old male CD2F1 mice (CHARLES RIVER LABORATORIES JAPAN, INC.) were divided into 3 groups (“Sed”, “Ex” and “Ex+Cys2”) (n=12/group), Sed group and Ex group were made to ingest a standard purified feed (AIN-93G composition), and Ex+Cys2 group was made to ingest a standard purified feed (AIN-93G composition) added with cystine (2 wt %) by replacing casein, each for 7 days. Thereafter, each group was fasted overnight, and Ex group and Ex+Cys2 group were made to run in a running wheel for 4 hr (speed=10.5 m/min). Sed group was continuously fasted during the running exercise of Ex group and Ex+Cys2 group. […]
Ringer buffer containing 10 mM glucose was added to the serous membrane side and the villus side of the produced everted intestine sample of each group, and the sample was incubated under oxygen supply at 37° C. for 90 min. Thereafter, the everted intestine sample was taken out, and the glucose concentration of the Ringer buffer on the serous membrane side and the villus side was measured using a glucose measurement kit (“glucose CII Test Wako” (Wako Pure Chemical Industries, Ltd.)). The glucose absorption capacity of each group was calculated from the difference in the glucose concentration between the villus side and the serous membrane side. […]

[5] = tested on: sodium-dependent glucose transporter gene (SGLT1); assay: Expression of sodium-dependent glucose transporter gene in small intestine after running exercise (real-time PCR); conditions: feed with cystine 2 wt % for 7 days, 4 hr running; compared to Ex group; tendency toward significance at P<0.1
Excerpt: 7-Week-old male CD2F1 mice (CHARLES RIVER LABORATORIES JAPAN, INC.) were divided into 3 groups (“Sed”, “Ex” and “Ex+Cys2”) (n=12/group), Sed group and Ex group were made to ingest a standard purified feed (AIN-93G composition), and Ex+Cys2 group was made to ingest a standard purified feed (AIN-93G composition) added with cystine (2 wt %) by replacing casein, each for 7 days. Thereafter, each group was fasted overnight, and Ex group and Ex+Cys2 group were made to run in a running wheel for 4 hr (speed=10.5 m/min). Sed group was continuously fasted during the running exercise of Ex group and Ex+Cys2 group. Immediately after completion of running, the small intestine was collected, everted intestine samples were produced according to the method of KirK et al. (ADVANCES In Physiology Education 37 (4) 415-426 (2013), which is incorporated herein by reference in its entirety). As the everted intestine sample, a part of 8 cm below the point of 4 cm from the pyloric part was used.
Furthermore, using Rneasy Lipid Tissue Mini Kit (QIAGEN), total RNA was extracted from a part of the small intestine used for producing the everted intestine sample. QuantStudio 12K Flex Real-Time PCR System (Thermo Fisher Scientific) was used for the measurement of the expression of sodium-dependent glucose transporter gene (SGLT1). […]

[6] = tested on: small intestine (everted intestine sample); assay: Glucose absorption capacity of everted intestine sample without exercise (Experimental Example 3); conditions: non-exercise, feed with cystine 2 wt % for 7 days, 10 mM glucose, 37° C., 90 min, Sed+Cys2 compared to Sed group
Excerpt: 7-Week-old male CD2F1 mice (CHARLES RIVER LABORATORIES JAPAN, INC.) were divided into 2 groups (“Sed” and “Sed+Cys2”) (n=6/group), Sed group was made to ingest a standard purified feed (AIN-93G composition), and Sed+Cys2 group was made to ingest a standard purified feed (AIN-93G composition) added with cystine (2 wt %) by replacing casein, each for 7 days. Then, each group was fasted overnight, and the small intestine was collected, everted intestine samples were produced according to the method of KirK et al. (ADVANCES In Physiology Education 37 (4) 415-426 (2013), which is incorporated herein by reference in its entirety). […]
Ringer buffer containing 10 mM glucose was added to the serous membrane side and the villus side of the everted intestine sample of each group, and the sample was incubated under oxygen supply at 37° C. for 90 min. Thereafter, the everted intestine sample was taken out, and the glucose concentration of the Ringer buffer on the serous membrane side and the villus side was measured using a glucose measurement kit (“glucose CII Test Wako” (Wako Pure Chemical Industries, Ltd.)). The glucose absorption capacity of each group was calculated from the difference in the glucose concentration between the villus side and the serous membrane side. The difference in the glucose absorption capacity of each group was determined by a comparison t-test between two groups. […]

[7] = tested on: amino acid transporter gene (Slc7a7); assay: Expression of amino acid transporter gene in small intestine after running exercise (GeneChip array); conditions: feed with 2 wt % for 7 days, 4 hr running, small intestine 1 hr after running; compared to Ex group; tendency toward significance at P=0.1
Excerpt: as §1

[8] = tested on: scavenge receptor class B gene (Scarb1); assay: Expression of scavenge receptor class B gene in small intestine after running exercise (GeneChip array); conditions: feed with 2 wt % for 7 days, 4 hr running, small intestine 1 hr after running; compared to Ex group; tendency toward significance at P<0.1
Excerpt: as §1

[9] = tested on: ABC protein G8 gene (Abcg8); assay: Expression of ABC protein G8 gene in small intestine after running exercise (GeneChip array); conditions: feed with 2 wt % for 7 days, 4 hr running, small intestine 1 hr after running; compared to Ex group; P<0.05
Excerpt: as §1

[10] = tested on: folic acid transporter gene (Slc46a1); assay: Expression of folic acid transporter gene in small intestine after running exercise (GeneChip array); conditions: feed with 2 wt % for 7 days, 4 hr running, small intestine 1 hr after running; compared to Ex group; P<0.05
Excerpt: as §1

SMILES	expression level of peptide transporter gene (mRNA level) [1]	expression level of ABC protein G5 gene (mRNA level) [2]	expression level of biotinidase gene (mRNA level) (biotinidase gene (Btd))	expression level of sodium-dependent multivitamin transporter gene (mRNA level) [3]	expression level of aquaporin gene (mRNA level) (aquaporin gene (Aqa3))	glucose absorption capacity (difference in glucose concentration between villus side and serous membrane side) ([4]; 10 mM glucose, 37° C., 90 min, compared to Ex group)	glucose absorption capacity (difference in glucose concentration between villus side and serous membrane side) ([4]; Ex+Cys2 compared to Sed group (no exercise))	expression of SGLT1 (mRNA amount) [5]	glucose absorption capacity (difference in glucose concentration between villus side and serous membrane side) [6]	expression level of amino acid transporter gene (mRNA level) [7]	expression level of scavenge receptor class B gene (mRNA level) [8]	expression level of ABC protein G8 gene (mRNA level) [9]	expression level of folic acid transporter gene (mRNA level) [10]
NC(CSSCC(N)C(=O)O)C(=O)O (stereo not drawn) [cystine, 3,3′-dithiobis(2-aminopropanoic acid)]	increased	increased	increased	increased	increased	significantly (P<0.05) improved	higher	tended to increase	improved				
NC(=O)CCC(N)C(=O)O (stereo not drawn) [glutamine, 2-amino-4-carbamoylbutanoic acid]			increased		increased					increased	increased	increased	increased
